From patent US20060069132A1, “Azolecarboxamide herbicides” (priority 2004, published 2006)

Experiments:
[1] = test system: field bindweed; experiment: Test E pre-/postemergence herbicide test; type: in vivo, Convolvulus arvensis
Outline: (§1)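 Each species was compared with untreated controls 12 to 14 days after greenhouse application and assigned a visual score from 0 (no effect) to 100 (complete control). Applications were preemergence to seeded soil or postemergence to 1- to 4-leaf plants, using a solvent-plus-surfactant formulation.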

[2] = test system: barnyardgrass; experiment: Test E pre-/postemergence herbicide test; type: in vivo, Echinochloa crus-galli
Outline: as §1

[3] = test system: dallisgrass; experiment: Test E pre-/postemergence herbicide test; type: in vivo, Paspalum dilatatum
Outline: as §1

[4] = test system: wheat; experiment: Test C postemergence herbicide test; type: in vivo, Triticum aestivum
Outline: (§2)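 After a postemergence application at 1 to 4 leaves (plants 2–18 cm high), or at 2 leaves for barnyardgrass in flooded paddy, plants stayed in the greenhouse for 12 to 14 days. Damage was then judged visually relative to control plants, with 100 indicating complete control.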

[5] = test system: pitted morningglory; experiment: Test E pre-/postemergence herbicide test; type: in vivo, Ipomoea lacunosa
Outline: as §1

[6] = test system: downy bromegrass; experiment: Test C postemergence herbicide test; type: in vivo, Bromus tectorum
Outline: as §2

[7] = test system: large crabgrass; experiment: Test E pre-/postemergence herbicide test; type: in vivo, Digitaria sanguinalis
Outline: as §1

[8] = test system: wild oat; experiment: Test C postemergence herbicide test; type: in vivo, Avenafatua
Outline: as §2

[9] = test system: common ragweed; experiment: Test E pre-/postemergence herbicide test; type: in vivo, Ambrosia elatior
Outline: as §1

[10] = test system: common mallow; experiment: Test E pre-/postemergence herbicide test; type: in vivo, Malva sylvestris
Outline: as §1

[11] = test system: Russian thistle; experiment: Test E pre-/postemergence herbicide test; type: in vivo, Salsola kali; details: Preemergence
Excerpt: Seeds of plant species selected from bipinnate beggarticks (Bidens bipinnata L.), hairy beggarticks (Bidens radiata Thuill.), bermudagrass (Cynodon dactylon (L.) Pers.), Surinam grass (Urochloa decumbens (Staph) R. D. Webster, previously named Brachiaria decumbens Stapf), large crabgrass (Digitaria sanguinalis (L.) Scop.), green foxtail (Setaria viridis (L.) P. Beauv.), goosegrass (Eleusine indica (L.) Gaertn.), johnsongrass (Sorghum halepense (L.) Pers.), kochia (Kochia scoparia (L.) Schrad.), pitted morningglory (Ipomoea lacunosa L.), purple nutsedge (Cyperus rotundus L.), common ragweed (Ambrosia elatior L.), mustard (Brassica nigra (L.) W. D. J. Koch), guineagrass (Panicum maximum Jacq.), dallisgrass (Paspalum dilatatum Poir.), barnyardgrass (Echinochloa crus-galli (L). P. Beauv.), southern sandbur (Cenchrus echinatus L.), common sowthistle (Sonchus oleraceous L.), prickly sida (Sida spinosa L.), Italian ryegrass (Lolium multiflorum Lam.), common purslane (Portulaca oleracea L.), broadleaf signalgrass (Brachiaria platyphylla (Griseb.) Nash), common groundsel (Senecio vulgaris L.), common chickweed (Stellaria media (L.) Vill/Cyr.), tropical spiderwort (Commelina benghalensis L.), annual bluegrass (Poa annua L.), downy bromegrass (Bromus tectorum L.), itchgrass (Rottboellia cochinchinensis (L.) L.f.), quackgrass (Elytrigia repens (L.) Nevski), Canada horseweed (Erigeron Canadensis L.), field bindweed (Convolvulus arvensis L.), spotted spurge (Euphorbia maculata L.), common mallow (Malva sylvestris (=s silvestris) L.), and Russian thistle (Salsola kali L. ssp. Ruthenica (Iljin) Soo) were planted and treated preemergence with test chemicals formulated in a non-phytotoxic solvent mixture which included a surfactant.
At the same time, plants selected from these weed species were treated with postemergence applications of some of the test chemicals formulated in the same manner. Plants ranged in height from 2 to 18 cm (1- to 4-leaf stage) for postemergence treatments. Treated plants and controls were maintained in a greenhouse for 12 to 14 days, after which time all species were compared to controls and visually evaluated. Plant response ratings, summarized in Table E, are based on a scale of 0 to 100 where 0 is no effect and 100 is complete control. A dash (-) response means no test result.

[12] = test system: Canada horseweed; experiment: Test E pre-/postemergence herbicide test; type: in vivo, Erigeron Canadensis
Outline: as §1

[13] = test system: kochia; experiment: Test E pre-/postemergence herbicide test; type: in vivo, Kochia scoparia; details: Preemergence
Outline: as §1

[14] = Preemergence, 62 g ai/ha, scale 0 to 100
[15] = Preemergence, 125 g ai/ha, scale 0 to 100
[16] = Preemergence, 250 g ai/ha, scale 0 (no effect) to 100 (complete control)
[17] = Preemergence, 500 g ai/ha, scale 0 (no effect) to 100 (complete control)
[18] = Postemergence, 250 g ai/ha, scale 0 to 100, 0 no effect, 100 complete control
[19] = postemergence, 125 g ai/ha, scale 0 to 100
[20] = postemergence, 62 g ai/ha, scale 0 to 100
[21] = 500 g ai/ha, scale 0 (no effect) to 100 (complete control)
[22] = Postemergence, 500 g ai/ha, scale 0 to 100
[23] = Postemergence, 250 g ai/ha, scale 0 to 100
[24] = 250 g ai/ha, scale 0 (no effect) to 100 (complete control)
[25] = Preemergence, 125 g ai/ha, scale 0 (no effect) to 100 (complete control)

CCN1N=C(C(C)(C)C)CC1C(=O)Nc1cc(C(=O)N(C)C)ccc1F (stereo not shown) [Compound 268, N-[5-[(dimethylamino)carbonyl]-2-fluorophenyl]-3-(1,1-dimethylethyl)-1-ethyl-4,5-dihydro-1H-pyrazole-5-carboxamide]
Plant response rating, Bindweed, Field [1, 14]: 0
Plant response rating, Bindweed, Field [1, 15]: 20
Plant response rating, Bindweed, Field [1, 16]: 40
Plant response rating, Bindweed, Field [1, 17]: 70
Plant response rating, Barnyardgrass [2, 14]: 60
Plant response rating, Barnyardgrass [2, 15]: 85
Plant response rating, Barnyardgrass [2, 16]: 100
Plant response rating, Barnyardgrass [2, 17]: 100
Plant response rating, Dallisgrass [3, 14]: 70
Plant response rating, Dallisgrass [3, 15]: 80
Plant response rating, Dallisgrass [3, 16]: 85
Plant response rating, Dallisgrass [3, 17]: 85
Plant response rating, Wheat [4, 18]: 25
Plant response rating, Wheat [4, 19]: 0
Plant response rating, Wheat [4, 20]: 0
Plant response rating, Morningglory [5, 14]: 10
Plant response rating, Morningglory [5, 15]: 10
Plant response rating, Morningglory [5, 16]: 40
Plant response rating, Morningglory [5, 17]: 60
Plant response rating, Bromegrass, Downy [6, 18]: 40
Plant response rating, Bromegrass, Downy [6, 19]: 30
Plant response rating, Bromegrass, Downy ([6]; postemergence, 31 g ai/ha, scale 0 to 100): 0
Plant response rating, Bromegrass, Downy [6, 20]: 10
Plant response rating, Crabgrass, Large [7, 14]: 70
Plant response rating, Crabgrass, Large [7, 15]: 80
Plant response rating, Crabgrass, Large [7, 16]: 95
Plant response rating, Crabgrass, Large [7, 17]: 95
Plant response rating, Oat, Wild [8, 18]: 65
Plant response rating, Oat, Wild [8, 19]: 35
Plant response rating, Oat, Wild [8, 20]: 20
Plant response rating, Ragweed [9, 14]: 50
Plant response rating, Ragweed [9, 15]: 60
Plant response rating, Ragweed [9, 16]: 100
Plant response rating, Ragweed [9, 17]: 100
Plant response rating, Mallow [10, 14]: 50
Plant response rating, Mallow [10, 15]: 50
Plant response rating, Mallow [10, 16]: 80
Plant response rating, Mallow [10, 17]: 90
Plant response rating, Thistle ([11]; 125 g ai/ha, scale 0 to 100): 60
Plant response rating, Thistle [11, 21]: 100

CCNC(=O)c1ccc(F)c(NC(=O)c2cn(C(C)(C)C)nc2CC)c1 [Compound 193]
Plant response rating, Bindweed, Field [1, 22]: 50
Plant response rating, Bindweed, Field [1, 23]: 50
Plant response rating, Bindweed, Field [1, 14]: 50
Plant response rating, Bindweed, Field [1, 15]: 50
Plant response rating, Bindweed, Field [1, 16]: 80
Plant response rating, Bindweed, Field [1, 17]: 85
Plant response rating, Bindweed, Field [1, 20]: 20
Plant response rating, Barnyardgrass [2, 22]: 90
Plant response rating, Barnyardgrass [2, 23]: 80
Plant response rating, Barnyardgrass [2, 14]: 20
Plant response rating, Barnyardgrass [2, 15]: 75
Plant response rating, Barnyardgrass [2, 16]: 85
Plant response rating, Barnyardgrass [2, 17]: 95
Plant response rating, Barnyardgrass [2, 19]: 75
Plant response rating, Barnyardgrass [2, 20]: 10
Plant response rating, Horseweed [12, 22]: 90
Plant response rating, Horseweed [12, 23]: 70
Plant response rating, Horseweed [12, 14]: 80
Plant response rating, Horseweed [12, 15]: 100
Plant response rating, Horseweed [12, 16]: 100
Plant response rating, Horseweed [12, 17]: 100
Plant response rating, Horseweed [12, 19]: 50
Plant response rating, Horseweed [12, 20]: 50
Plant response rating, Dallisgrass [3, 22]: 90
Plant response rating, Dallisgrass [3, 23]: 90
Plant response rating, Dallisgrass [3, 14]: 40
Plant response rating, Dallisgrass [3, 15]: 95
Plant response rating, Dallisgrass [3, 16]: 95
Plant response rating, Dallisgrass [3, 17]: 100
Plant response rating, Dallisgrass [3, 19]: 40
Plant response rating, Dallisgrass [3, 20]: 10
Plant response rating, Morningglory [5, 22]: 75
Plant response rating, Morningglory [5, 23]: 60
Plant response rating, Morningglory [5, 14]: 0
Plant response rating, Morningglory [5, 15]: 20
Plant response rating, Morningglory [5, 16]: 50
Plant response rating, Morningglory [5, 17]: 70
Plant response rating, Morningglory [5, 19]: 60
Plant response rating, Morningglory [5, 20]: 30
Plant response rating, Crabgrass, Large [7, 22]: 100
Plant response rating, Crabgrass, Large [7, 23]: 100
Plant response rating, Crabgrass, Large [7, 14]: 60
Plant response rating, Crabgrass, Large [7, 15]: 80
Plant response rating, Crabgrass, Large [7, 16]: 100
Plant response rating, Crabgrass, Large [7, 17]: 100
Plant response rating, Crabgrass, Large [7, 19]: 80
Plant response rating, Crabgrass, Large [7, 20]: 10
Plant response rating, Kochia ([13]; 62 g ai/ha, scale 0 to 100): 100
Plant response rating, Kochia ([13]; 125 g ai/ha, scale 0 to 100): 100
Plant response rating, Kochia [13, 24]: 100
Plant response rating, Kochia [13, 21]: 100
Plant response rating, Ragweed [9, 22]: 75
Plant response rating, Ragweed [9, 23]: 70
Plant response rating, Ragweed [9, 14]: 50
Plant response rating, Ragweed [9, 15]: 50
Plant response rating, Ragweed [9, 16]: 80
Plant response rating, Ragweed [9, 17]: 95
Plant response rating, Ragweed [9, 19]: 30
Plant response rating, Ragweed [9, 20]: 10
Plant response rating, Mallow [10, 22]: 90
Plant response rating, Mallow [10, 23]: 90
Plant response rating, Mallow [10, 14]: 60
Plant response rating, Mallow [10, 15]: 95
Plant response rating, Mallow [10, 16]: 95
Plant response rating, Mallow [10, 17]: 95
Plant response rating, Mallow [10, 19]: 60
Plant response rating, Mallow [10, 20]: 20

CCNC(=O)c1cccc(NC(=O)c2cc(C(C)(C)C)nn2CC)n1 [Compound 144]
Plant response rating, Bindweed, Field [1, 14]: 0
Plant response rating, Bindweed, Field [1, 16]: 50
Plant response rating, Bindweed, Field [1, 17]: 80
Plant response rating, Barnyardgrass [2, 14]: 30
Plant response rating, Barnyardgrass [2, 25]: 60
Plant response rating, Barnyardgrass [2, 16]: 80
Plant response rating, Barnyardgrass [2, 17]: 90
Plant response rating, Horseweed [12, 14]: 70
Plant response rating, Horseweed [12, 25]: 100
Plant response rating, Horseweed [12, 16]: 100
Plant response rating, Horseweed [12, 17]: 100
Plant response rating, Dallisgrass [3, 14]: 0
Plant response rating, Dallisgrass [3, 25]: 30
Plant response rating, Dallisgrass [3, 16]: 60
Plant response rating, Dallisgrass [3, 17]: 80
Wheat plant response rating [4, 22]: 30
Plant response rating, Wheat [4, 18]: 30
Plant response rating, Wheat [4, 19]: 30
Plant response rating, Wheat [4, 20]: 20
Plant response rating, Morningglory [5, 14]: 0
Plant response rating, Morningglory [5, 25]: 20
Plant response rating, Morningglory [5, 16]: 20
Plant response rating, Morningglory [5, 17]: 100
Bromegrass, Downy plant response rating [6, 22]: 40
Plant response rating, Bromegrass, Downy [6, 18]: 40
Plant response rating, Bromegrass, Downy [6, 19]: 40
Plant response rating, Bromegrass, Downy [6, 20]: 20
Plant response rating, Crabgrass, Large [7, 14]: 0
Plant response rating, Crabgrass, Large [7, 25]: 40
Plant response rating, Crabgrass, Large [7, 16]: 50
Plant response rating, Crabgrass, Large [7, 17]: 60
Plant response rating, Kochia ([13]; 62 g ai/ha, scale 0 to 100): 0
Plant response rating, Kochia ([13]; 125 g ai/ha, scale 0 (no effect) to 100 (complete control)): 60
Plant response rating, Kochia [13, 24]: 90
Plant response rating, Kochia [13, 21]: 90
Oat, Wild plant response rating [8, 22]: 50
Plant response rating, Oat, Wild [8, 18]: 50
Plant response rating, Oat, Wild [8, 19]: 50
Plant response rating, Oat, Wild [8, 20]: 30
Plant response rating, Ragweed [9, 14]: 0
Plant response rating, Ragweed [9, 25]: 30
Plant response rating, Ragweed [9, 16]: 40
Plant response rating, Ragweed [9, 17]: 40
Plant response rating, Mallow [10, 14]: 60
Plant response rating, Mallow [10, 25]: 60
Plant response rating, Mallow [10, 16]: 70
Plant response rating, Mallow [10, 17]: 95
